In US20120004246A1, “PURINYL DERIVATIVES AND THEIR USE AS POTASSIUM CHANNEL MODULATORS” (NeuroSearch A/S, priority 2007, published 2012):

Molecular target: T1, hSK3 channels (Homo sapiens, UniProt Q9UGI6)
T1 construct: expressed in transfected cells; host or cells: HEK293
Experiment: whole-cell patch-clamp of SK3 current in HEK293 cells expressing hSK3 channels
Assay type: cell-based
Conditions: SK3 activation
Experimental: The ionic current through small-conductance Ca^2+-activated K^+ channels (SK channels, subtype 3) is recorded using the whole-cell configuration of the patch-clamp technique in a classic patch-clamp set-up using HEK293 tissue culture cells expressing hSK3 channels as described in e.g. WO 2006/100212.
The SC100 value determined is defined as the Stimulating Concentration required for increasing the baseline current by 100%. The below SC100 values are an indication of the SK3 activating properties of the compounds of the invention.

CCn1cnc2c(Nc3ccc(Cl)c(Cl)c3)nc(-n3nc(C)cc3C)nc21 [Compound 4.1, (3,4-Dichloro-phenyl)-[2-(3,5-dimethyl-pyrazol-1-yl)-9-ethyl-9H-purin-6-yl]-amine]
SC100 (Stimulating Concentration required for increasing the baseline current by 100%): 0.04 µM

Cc1cc(C)n(-c2nc(Nc3ccc(F)c(F)c3)c3ncn(C)c3n2)n1 [Compound 6.1, (3,4-Difluoro-phenyl)-(2-(3,5-dimethyl-pyrazol-1-yl)-9-methyl-9H-purin-6-yl)-amine]
SC100 (Stimulating Concentration required for increasing the baseline current by 100%): 0.02 µM
